Measurements: PubChem BioAssay AID248 (DTP/NCI, 2004)
“And” between values parts separate entries of the source, which are not always exact repeats. Equal values may be shown once. Toxic doses and inconclusive results are not listed. Rule as the data show it: active = T/C of 150% or more; inactive = T/C below 125%. Square brackets hold non-standard residues; d marks the D form. Peptide text beside a SMILES is read from it. * marks the point of attachment. ξ: configuration not given here. Cbz = O=C(OCc1ccccc1)*; ξI = CCC(C)C(N)C(=O)O

Tested on: L1210 leukemia ip in BDF1 mice, survival T/C
Assay: NCI In Vivo Anticancer Drug Screen. Data for tumor model L1210 Leukemia (intraperitoneal) in B6D2F1 (BDF1) mice
Conditions: endpoint: mean survival time, higher = longer survival
Procedure, shortened: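 Transplantable tumor model; survival measured in treated vs vehicle control mice. Value = treated/control.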

[1] = dose: 100.0 mg/kg/injection, schedule: Q04DX003 (ip), vehicle: Klucel (hydroxypropylcellulose) (HPC)
[2] = dose: 200.0 mg/kg/injection, schedule: Q04DX003 (ip), vehicle: Klucel (hydroxypropylcellulose) (HPC)
[3] = dose: 50.0 mg/kg/injection, schedule: Q01DX009 (ip), vehicle: Klucel (hydroxypropylcellulose) (HPC)
[4] = dose: 100.0 mg/kg/injection, schedule: Q01DX009 (ip), vehicle: Klucel (hydroxypropylcellulose) (HPC)
[5] = dose: 200.0 mg/kg/injection, schedule: Q01DX009 (ip), vehicle: Klucel (hydroxypropylcellulose) (HPC)
[6] = dose: 100.0 mg/kg/injection, schedule: Q01DX009 (ip), vehicle: saline with Tween-80
[7] = dose: 100.0 mg/kg/injection, schedule: Q04DX003 (ip), vehicle: saline with Tween-80
[8] = dose: 200.0 mg/kg/injection, schedule: Q01DX009 (ip), vehicle: saline with Tween-80
[9] = dose: 200.0 mg/kg/injection, schedule: Q04DX003 (ip), vehicle: saline with Tween-80
[10] = dose: 400.0 mg/kg/injection, schedule: Q04DX003 (ip), vehicle: saline with Tween-80
[11] = dose: 100.0 mg/kg/injection, schedule: Q04DX003 (ip), vehicle: saline
[12] = dose: 200.0 mg/kg/injection, schedule: Q04DX003 (ip), vehicle: saline
[13] = dose: 50.0 mg/kg/injection, schedule: Q01DX001 (ip), vehicle: saline

Measured: T/C

CCC(C)C(NC(=O)CNC(=O)CNC(=O)OCc1ccccc1)C(=O)OC (stereo not drawn) (Cbz-Gly-Gly-[ξI]-OMe)
inactive: [1] 98 % of control | [2] 96 % of control | dose: 400.0 mg/kg/injection, schedule: Q04DX003 (ip), vehicle: Klucel (hydroxypropylcellulose) (HPC) 98 % of control

Cc1ccc(C(=O)n2c(Cl)c(/C=N/NC(N)=S)c3ccccc32)cc1
inactive: dose: 50.0 mg/kg/injection, schedule: Q04DX002 (ip), vehicle: Klucel (hydroxypropylcellulose) (HPC) 87 % of control | dose: 100.0 mg/kg/injection, schedule: Q04DX002 (ip), vehicle: Klucel (hydroxypropylcellulose) (HPC) 95 % of control

O=S(=O)(/C=C/c1ccccc1)c1ccc(F)cc1
inactive: dose: 100.0 mg/kg/injection, schedule: Q01DX001 (ip), vehicle: acetone 97 % of control | dose: 100.0 mg/kg/injection, schedule: Q01DX009 (ip), vehicle: acetone 88 % of control | dose: 200.0 mg/kg/injection, schedule: Q01DX001 (ip), vehicle: acetone 95 % of control | dose: 400.0 mg/kg/injection, schedule: Q01DX001 (ip), vehicle: acetone 95 % of control

COC(=O)C(CCl)NC(=O)NCCCl (centres undefined)
inactive: dose: 100.0 mg/kg/injection, schedule: Q01DX001 (ip), vehicle: Klucel (hydroxypropylcellulose) (HPC) 96 % of control | dose: 200.0 mg/kg/injection, schedule: Q01DX001 (ip), vehicle: Klucel (hydroxypropylcellulose) (HPC) 96 % of control | dose: 400.0 mg/kg/injection, schedule: Q01DX001 (ip), vehicle: Klucel (hydroxypropylcellulose) (HPC) 96 % of control

[O-][n+]1onc(-c2ccccn2)c1-c1ccccn1
inactive: dose: 100.0 mg/kg/injection, schedule: Q04DX002 (ip), vehicle: saline with Tween-80 95 % of control | dose: 200.0 mg/kg/injection, schedule: Q04DX002 (ip), vehicle: saline with Tween-80 100 % of control | dose: 400.0 mg/kg/injection, schedule: Q04DX002 (ip), vehicle: saline with Tween-80 103 % of control

c1ccc(C2(c3ccccc3)CC([P+](c3ccccc3)(c3ccccc3)c3ccccc3)N=N2)cc1 (centres undefined)
inactive: dose: 10.0 mg/kg/injection, schedule: Q01DX001 (ip), vehicle: saline 103 % of control | dose: 20.0 mg/kg/injection, schedule: Q01DX001 (ip), vehicle: saline 111 % of control | dose: 40.0 mg/kg/injection, schedule: Q01DX001 (ip), vehicle: saline 112 % of control

c1ccc(C2C(c3ccccc3)N2CCCN2CCOCC2)cc1 (centres undefined)
inactive: [3] 106 % of control | [4] 103 % of control | [1] 88 % of control | [5] 107 % of control | [2] 93 % of control

Cc1cc(/C=C\c2ccc3ccccc3[n+]2C)c(O)c2ncccc12
inactive: dose: 100.0 mg/kg/injection, schedule: Q01DX001 (ip), vehicle: carboxymethylcellulose (CMC) 110 % of control | dose: 200.0 mg/kg/injection, schedule: Q01DX001 (ip), vehicle: carboxymethylcellulose (CMC) 93 % of control

CC/C(=N/O)c1ccc(O)cc1O
inactive: [6] 106 % of control | [7] 101 % of control | [8] 106 % of control | [9] 101 % of control | [10] 101 % of control

Cc1cccnc1C
inactive: dose: 10.0 mg/kg/injection, schedule: Q01DX009 (ip), vehicle: saline 105 % of control | dose: 20.0 mg/kg/injection, schedule: Q01DX009 (ip), vehicle: saline 111 % of control | dose: 30.0 mg/kg/injection, schedule: Q01DX009 (ip), vehicle: saline 115 % of control | dose: 40.0 mg/kg/injection, schedule: Q04DX003 (ip), vehicle: saline 112 % of control | dose: 80.0 mg/kg/injection, schedule: Q04DX003 (ip), vehicle: saline 107 % of control | [11] 100 % of control

O=C(Nc1ccc(C(=O)O)cc1)Nc1cccc(Cl)c1
inactive: dose: 25.0 mg/kg/injection, schedule: Q04DX002 (ip), vehicle: saline 92 % of control | dose: 50.0 mg/kg/injection, schedule: Q04DX002 (ip), vehicle: saline 95 % of control | dose: 100.0 mg/kg/injection, schedule: Q04DX002 (ip), vehicle: saline 100 % of control and 89 % of control

CC(OC1CCCCO1)C1CCC2C3CCC4=CC(=O)CCC4(C)C3CCC12C (centres undefined)
inactive: dose: 50.0 mg/kg/injection, schedule: Q01DX001 (sc), vehicle: steriod suspending solution 103 % of control | dose: 100.0 mg/kg/injection, schedule: Q01DX001 (sc), vehicle: steriod suspending solution 105 % of control | dose: 200.0 mg/kg/injection, schedule: Q01DX001 (sc), vehicle: steriod suspending solution 103 % of control | dose: 400.0 mg/kg/injection, schedule: Q01DX001 (sc), vehicle: steriod suspending solution 111 % of control

C=CCN1CCCC1=O
inactive: [11] 95 % of control | [12] 96 % of control | dose: 400.0 mg/kg/injection, schedule: Q04DX003 (ip), vehicle: saline 95 % of control

O=C(Nc1ccc([N+](=O)[O-])cc1Cl)SCCSC(=O)Nc1ccc([N+](=O)[O-])cc1Cl
inactive: [4] 114 % of control | [5] 94 % of control | dose: 400.0 mg/kg/injection, schedule: Q01DX009 (ip), vehicle: Klucel (hydroxypropylcellulose) (HPC) 105 % of control

COc1ccccc1CN1CCCN(Cc2ccccc2OC)C1c1ccccn1
inactive: [13] 100 % of control | dose: 100.0 mg/kg/injection, schedule: Q01DX001 (ip), vehicle: saline 100 % of control | dose: 200.0 mg/kg/injection, schedule: Q01DX001 (ip), vehicle: saline 100 % of control

CN(C)Cc1cc(C(C)(C)C)ccc1O
inactive: [11] 95 % of control | [12] 91 % of control

O=C(Nc1nccs1)Nc1cccc(Cl)c1Cl
inactive: dose: 25.0 mg/kg/injection, schedule: Q01DX009 (ip), vehicle: Klucel (hydroxypropylcellulose) (HPC) 106 % of control | [3] 101 % of control

CCOC(=O)CCC(NC(=O)c1ccccc1NC)C(=O)OCC (centres undefined)
inactive: [6] 94 % of control | [8] 92 % of control | dose: 400.0 mg/kg/injection, schedule: Q01DX009 (ip), vehicle: saline with Tween-80 101 % of control

CCCCCCCCCCCC(=O)Nc1ccc(S(=O)(=O)NNc2ccccc2)cc1[N+](=O)[O-]
inactive: [4] 95 % of control | dose: 100.0 mg/kg/injection, schedule: Q04DX003 (ip), vehicle: alcohol 94 % of control | dose: 200.0 mg/kg/injection, schedule: Q04DX003 (ip), vehicle: alcohol 95 % of control | dose: 400.0 mg/kg/injection, schedule: Q04DX003 (ip), vehicle: alcohol 90 % of control

C/C=C/C[n+]1c(C)ccc2ccccc21
inactive: dose: 12.5 mg/kg/injection, schedule: Q01DX001 (ip), vehicle: saline 98 % of control | dose: 25.0 mg/kg/injection, schedule: Q01DX001 (ip), vehicle: saline 96 % of control | [13] 93 % of control

O=C(COc1ccc(Cl)c(Cl)c1)NCc1ccc[n+](Cc2ccc([N+](=O)[O-])cc2)c1
inactive: [7] 89 % of control | [9] 91 % of control | [10] 88 % of control
